Results as given in US20240245770A1, “COMPOSITIONS AND METHODS FOR TREATING NEUROMUSCULAR DISORDERS” (The Regents of the University of California, priority 2019, published 2024).

Tests used:
[1] = test system: Oral squamous carcinoma cells (OSCCs) and Oral squamous stem cell carcinoma (OSCSCs); assay: NAC blocking of CDDP mediated cell death (PI staining, flow cytometry); type: cell-based, human; conditions: OSCC compared with OSCSCs, 24 hours
Protocol: Testing and selection of the best NAC to be used in ALS treatment. […] Afterwards OSCCs and OSCSCs were detached, and the viability of cells was determined after PI staining followed by flow cytometric analysis. In this figure Forward and Side Scatters (Fs/ss) were assessed since decrease in the Fs/ss is seen in cells undergoing cell death.
Testing and selection of the best NAC to be used in ALS treatment. […] Afterwards OSCCs and OSCSCs were detached, and the viability of cells was determined after PI staining followed by flow cytometric analysis. In this figure the percentage of PI stained cells were assessed.

[2] = test system: OSCSCs; assay: NAC blocking of H2O2 mediated cell death in OSCSCs; type: cell-based, human; conditions: NAC 20 mM, 24 hours, FIG. 68
[3] = test system: Dental Pulp Stromal Cells (DPSCs); assay: NAC blocking of H2O2 mediated cell death in DPSCs; type: cell-based, human; conditions: NAC 20 mM, 24 hours, FIG. 67
Protocol: Testing and selection of the best NAC to be used in ALS treatment. […] Afterwards DPSCs were detached, and the viability of cells was determined after PI staining followed by flow cytometric analysis. In this figure the decrease in FS/ss and the percentage of PI stained cells were assessed.

[4] = test system: ALS; conditions: cited from earlier work

[NH2][Pt]([NH2])([Cl])[Cl] [CDDP, Cisplatin]
cell death induced by CDDP [1]: induces more of the cell death in OSCC than in OSCSCs

CC(=O)N[C@@H](CS)C(=O)O [NAC-M]
H2O2 mediated cell death (Fs/ss and PI positive cells) [2]: able to inhibit H2O2 mediated cell death effectively | H2O2 mediated cell death (Fs/ss and PI positive cells) [3]: able to inhibit H2O2 mediated cell death effectively

Nc1nc2ccc(OC(F)(F)F)cc2s1 [Riluzole]
extension of life [4]: about two to three
